These results are taken from patent US5753664A, “Heterocyclic compounds, their production and use” (Takeda Chemical Industries, Ltd., priority 1995, dated 1998).

Molecules are shown by their SMILES.

Usually IC50 stands for the concentration at which inhibition is half-maximal.

This assay deals with Prostate carcinoma cell line PC-3. Nature of the assay: In vitro prostate carcinoma cell proliferation inhibition assay (MTT). In kind it is cell-based, human. Particulars: Homo sapiens, 72 h; PC-3, 3 days incubation, MTT; read-out: IC50 PC-3. How it is done: In vitro prostate carcinoma cell proliferation inhibition assay
Prostate carcinoma cell line PC-3 cells were suspended in Ham's F-12K medium (Flow Laboratories or Dainippon Pharmaceutical Co,. Ltd) supplemented with 10% fetal calf serum, and seeded in a 96-well microtiter plate (5000 cells/50 or 75 μl/well). The plate was then incubated in a 5% CO2 incubator at 37° C. On the following day, a 3-fold dilution series with the medium with serum of the test compound in N,N-dimethylformamide (DMF) (50 or 25 μl/well) were added (final volume […]) and the plate was incubated for another 3 days. Following addition of a thiazolyl-tetrazolium (MTT) solution, absorbance based on the viable cell number was determined "Tada et al., Journal of Immunological Methods, 93, 157 (1986)". With the estimated cell number in the control group to which the test compound solution was not added being taken as 100%, the percentage of the estimated cell number in each test group was determined and the concentration (IC50 value) of the test compound which was required for 50% inhibition of the estimated viable cell number in the control group was calculated.
Consider `Cc1cn(C)c2nc(SCc3ccc(C(=O)c4ccc(F)cc4)cc3)n(C)c(=O)c12` [57(A), 2-[4-(4-Fluorobenzoyl)benzyl]thio-3,5,7-trimethyl-7H-pyrrolo[2,3-d]pyrimidin-4(3H)-one], for which the IC50 came to 5 nM. Take `Cc1cn(C)c2nc(SC(C)c3ccc(C(=O)c4ccc(F)cc4)cc3)n(C)c(=O)c12` (stereo not drawn) [57(B), 2-[1-[4-(4-Fluorobenzoyl)phenyl]ethyl]thio-3,5,7-trimethyl-7H-pyrrolo[2,3-d]pyrimidin-4(3H)-one]: the IC50 was 9 nM.

Consider `CC(C)(C)n1ncc2c(cnn2Cc2ccc(C(=O)c3ccc(Cl)cc3)cc2)c1=O` [62(A), 5-Tert-butyl-1-[4-(4-chlorobenzoyl)benzyl]-1H-pyrazolo[3,4-d]pyridazin-4(5H)-one], for which the IC50 is < 1.52 nM. As to `Cc1nn(Cc2ccc(C(=O)c3ccc(Cl)cc3)cc2)c2cnn(C)c(=O)c12` [84(A), 1-[4-(4-Chlorobenzoyl)benzyl]-3,5-dimethyl-1H-pyrazolo [3,4-d]pyridazin-4(5H)-one], the IC50 amounted to 2 nM.

On to `CCn1c(SC)nc2c(cnn2Cc2ccc(C(=O)c3ccc(Cl)cc3)cc2)c1=O` [129(A)], for which the IC50 is < 1.52 nM. With `CCn1c(SC)nc2c(cnn2Cc2ccc(C(=O)c3ccc(OC)cc3)cc2)c1=O` [132(A), 5-Ethyl-1-[4-(4-methoxybenzoyl)benzyl]-6-methylthio-1,5-dihydro-4H-pyrazolo[3,4-d]pyrimidin-4-one] the figure was 2 nM; with `Cn1ncc2c(c(Cl)c(Cl)n2Cc2ccc(C(=O)c3ccc(Cl)cc3)cc2)c1=O` [Example 37, 1-[4-(4-Chlorobenzoyl)benzyl]-2,3-dichloro-5-methyl-1H-pyrrolo[2,3-d]pyridazin-4(5H)-one], 6 nM; with `Cc1c[nH]c2nc(SCc3ccc(C(=O)c4ccc(Cl)cc4)cc3)[nH]c(=O)c12` [Example 50, 2-[4-(4-Chlorobenzoyl)benzyl]thio-5-methyl-7H-pyrrolo[2,3-d]pyrimidin-4(3H)-one], 9 nM.

As for `Cc1cn(C)c2nc(SCc3ccc(C(=O)c4ccc(Cl)cc4)cc3)n(C)c(=O)c12` [Example 55, 2-[4-(4-Chlorobenzoyl)benzyl]thio-3,5,7-trimethyl-7H-pyrrolo[2,3-d]pyrimidin-4(3H)-one], the IC50 was < 1.52 nM. With `Cn1ncc2c(c(Cl)c(Cl)n2Cc2ccc(C(=O)c3ccc(F)cc3)cc2)c1=O` [Example 66, 1-[4-(4-Fluorobenzoyl)benzyl]-2,3-dichloro-5-methyl-1H-pyrrolo [2,3-d]pyridazin-4(5H)-one] the figure was 8 nM; with `Cc1cn(Cc2ccc(C(=O)c3ccc(Cl)cc3)cc2)c2ncn(C)c(=O)c12` [Example 94, 7-[4-(4-Chlorobenzoyl)benzyl]-3,5-dimethyl-7H-pyrrolo [2,3-d]pyrimidin-4(3H)-one], 2 nM; with `CCn1cnc2c(c(C)cn2Cc2ccc(C(=O)c3ccc(Cl)cc3)cc2)c1=O` [Example 96, 7-[4-(4-Chlorobenzoyl)benzyl]-3-ethyl-5-methyl-7H-pyrrolo [2,3-d]pyrimidin-4(3H)-one], < 1.52 nM. To `Cc1c(OCc2ccc(C(=O)c3ccc(C(F)(F)F)cc3)cc2)nc2ccccn2c1=O` [Example 124, 3-Methyl-2-[4-(4-trifluoromethylbenzoyl)benzyloxy]pyrido[1,2-a]pyrimidin-4-one] belongs 8 nM; to `Cc1cccc2nc(SCc3ccc(C(=O)c4ccc(CSc5nnnn5CCN(C)C)cc4)cc3)n(C)c(=O)c12` [Example 138, 3,5-Dimethyl-2-[4-[4-[[1-(2-dimethylaminoethyl)-1H-tetrazol-5-yl]thiomethyl]benzoyl]benzylthio]-4(3H)-quinazolinone], < 1.52 nM. With `Cc1cccc2nc(SCc3ccc(C(=O)c4ccc(CN5CCN(C)CC5)cc4)cc3)n(C)c(=O)c12` [Example 144, 3,5-Dimethyl-2-[4-[4-(4-methylpiperazinylmethyl)benzoyl]benzylthio]-4(3H)-quinazolinone] the figure was < 1.52 nM.
